From patent publication US12478628B2, “Germ cell nuclear factor ligands and methods of use thereof” (Saint Louis University, priority 2020, dated 2025) come the findings set out here.

Common to all, as to assay type: binding
Experiment [1] deals with T1, GCNF LBD F284A (Homo sapiens, UniProt Q15406, F284A).
T1 construct: Human GCNF (NR6A1) LBD (residues 248-480) and mutants F284A/F361A; hexahistidine tag with 3C protease site; made in house; host or cells: E. coli BL(21) DE3
T1 sequence (Q15406 248-480 F284A): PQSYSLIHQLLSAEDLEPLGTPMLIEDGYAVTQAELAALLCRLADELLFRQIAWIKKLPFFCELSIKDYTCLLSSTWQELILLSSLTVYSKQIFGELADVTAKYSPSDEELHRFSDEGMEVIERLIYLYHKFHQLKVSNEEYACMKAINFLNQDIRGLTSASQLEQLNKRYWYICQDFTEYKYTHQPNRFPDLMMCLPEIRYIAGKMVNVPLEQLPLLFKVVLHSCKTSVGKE
The experiment is described as follows: DSF of GCNF LBD mutant F284A. The settings on record: 20 μM ligand. On the procedure:
(§1) Protein Expression and Purification. Human GCNF (NR6A1) LBD (residues 248-480) and mutants F284A/F361A, human LRH-1 (NR5A2) LBD (residues 291-541), human RXRα LBD (residues 223-462), human COUP-TF I LBD (residues 184-410) and human SF-1 LBD (residues 219-461) were subcloned in pET45b(+) plasmid (Novagen) were expressed in E. coli BL(21) DE3 cells in terrific broth with 0.1 mg/mL ampicillin as 3C protease-cleavable hexahistidine-tagged fusion proteins. The bacterial culture was grown at 37° C. to an optical density of 0.8 to 1.0 at 600 nm. Protein expression was induced by adding 1 mM IPTG and was allowed to proceed for 14 h at 22° C. […]
(§2) DSF Assay. […] A total of 450 compounds (Life Chemicals) previously selected from a nuclear-receptor-biased library targeting REV-ERB were analyzed. Thermal stability was assessed on a Quantstudio 6 instrument (Biosystems) by ramping the temperature from 25° C. to 95° C. at 0.05° C./s and protein melt shifts were subsequently quantified by Boltzmann-derived melting temperature (Tm) using the Protein Thermal Shift (ThermoFisher) software. […]

In experiment [2] the target is T2, RXRα LBD (Homo sapiens, UniProt P19793).
T2 construct: human RXRα LBD (residues 223-462); hexahistidine tag with 3C protease site; made in house; host or cells: E. coli BL(21) DE3
T2 sequence (P19793 223-462): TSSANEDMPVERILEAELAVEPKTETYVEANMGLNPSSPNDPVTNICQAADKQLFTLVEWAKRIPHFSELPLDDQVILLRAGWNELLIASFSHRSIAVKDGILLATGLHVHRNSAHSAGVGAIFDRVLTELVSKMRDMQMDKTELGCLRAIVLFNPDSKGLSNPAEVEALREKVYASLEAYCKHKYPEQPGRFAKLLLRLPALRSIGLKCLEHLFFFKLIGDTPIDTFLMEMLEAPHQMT
The experiment is described as follows: DSF specificity assay, RXRα. As for the experimental part:
as §1, §2

The target of experiment [3] is T3, COUP-TF I LBD (Homo sapiens, UniProt P10589).
T3 construct: human COUP-TF I LBD (residues 184-410); hexahistidine tag with 3C protease site; made in house; host or cells: E. coli BL(21) DE3
T3 sequence (P10589 184-410): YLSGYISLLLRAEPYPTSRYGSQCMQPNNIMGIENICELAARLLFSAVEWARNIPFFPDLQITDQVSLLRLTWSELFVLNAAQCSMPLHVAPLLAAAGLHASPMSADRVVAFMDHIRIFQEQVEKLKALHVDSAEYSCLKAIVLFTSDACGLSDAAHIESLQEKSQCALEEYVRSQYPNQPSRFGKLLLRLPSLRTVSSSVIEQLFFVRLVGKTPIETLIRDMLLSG
The experiment is described as follows: DSF specificity assay, COUP-TF I. On the procedure: as §1, §2

Experiment [4] deals with T4, LRH-1 (NR5A2) LBD (Homo sapiens, UniProt O00482).
T4 construct: human LRH-1 (NR5A2) LBD (residues 291-541); hexahistidine tag with 3C protease site; made in house; host or cells: E. coli BL(21) DE3
T4 sequence (O00482 291-541): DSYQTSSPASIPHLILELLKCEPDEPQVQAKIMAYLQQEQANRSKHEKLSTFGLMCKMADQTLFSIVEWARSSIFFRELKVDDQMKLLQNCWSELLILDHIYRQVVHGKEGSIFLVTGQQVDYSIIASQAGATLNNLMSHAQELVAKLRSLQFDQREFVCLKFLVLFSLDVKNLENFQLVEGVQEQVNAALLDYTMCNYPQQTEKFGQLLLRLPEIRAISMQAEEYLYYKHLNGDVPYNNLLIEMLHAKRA
Nature of the experiment: DSF specificity assay, LRH-1. On the procedure: as §1, §2

In the case of `Cc1ccc(-n2ncc3c(N4CCOCC4)nc(NCc4ccco4)nc32)cc1` [Ligand 34, N-[(furan-2-yl)methyl]-1-(4-methylphenyl)-4-(morpholin-4-yl)-1H-pyrazolo[3,4-d]pyrimidin-6-amine], the “effect of mutation F284A on ΔTm compared to WT” value in experiment [1] is “substantially decreased the ΔTm”. For the same molecule, the “change of Tm of RXRα LBD” value in experiment [2] is listed as “did not significantly change”. Further, the “change of Tm of COUP-TF I LBD” value in experiment [3] is recorded as “did not significantly change”. Also, the “change of Tm of LRH-1 LBD” value in experiment [4] was “did not significantly change”.

For `O=C(Cn1cc(S(=O)(=O)c2ccccc2)c2ccccc21)N1CCc2ccccc21` [Ligand 80, 2-[3-(benzenesulfonyl)-1H-indol-1-yl]-1-(2,3-dihydro-1H-indol-1-yl)ethan-1-one], the “effect of mutation F284A on ΔTm compared to WT” value in experiment [1] was “no substantial effect”. In experiment [2], the “change of Tm of RXRα LBD” value is on record as “did not significantly change”. Further, the “change of Tm of COUP-TF I LBD” value in experiment [3] is “did not significantly change”. In experiment [4], the “change of Tm of LRH-1 LBD” value is given as “did not significantly change”.
